From US20030162759A1, “Aldosterone blocker therapy to prevent or treat inflammation-related disorders” (priority 2000, published 2003)
Where “and” joins values, the source holds several entries; their conditions need not be identical. Identical values can stand only once. Entries after “also recorded” stand apart in the source; their conditions may differ.

Key:
cyclooxygenase-2 (COX-2) = experiment: Assay C: COX-2 relative mRNA expression in heart (TaqMan); format: in vivo, rat; conditions: for COX-2, Mean / COX-2: mRNA; for COX-2, Mean: group mean; for COX-2: individual rats; for COX-2 mRNA expression in myocardium: time course 7, 14, 30 days, eplerenone 100 mg/kg/day
Procedure: The procedure of Assay B was expanded upon in a further study. […] Myocardial tissue from animals in each treatment group was examined after 7, 14, or 30 days of treatment.
Potassium chloride supplementation was added to the saline solution in order to prevent the potential hypokalemia associated with aldosterone excess.
At the time of the surgery, an Alzet 2002 osmotic minipump (Alza Corp., Palo Alto, Calif.) containing either vehicle (9% ethanol/87% propylene glycol/4% dH2O) or 1.0 mg/mL d-aldosterone (Sigma Chemical, St. Louis, Mo.) was inserted subcutaneously at the nape of the neck. Aldosterone was administered at a dose of 0.75 g/hour. […] Animals were sacrificed from each group (n=8-13) after 7, 14, or 30 days of treatment.
The fluorogenic 5′-nuclease assay (TaqMan PCR) using Applied Biosystems' 7700 Sequence Detection System (Applied Biosystems, Foster City, Calif.) allowed for real time detection/quantitation of a specific gene by monitoring the increase in fluorescence of a gene-specific, dye-labeled oligonucleotide probe. Probes for target and reference genes were labeled at the 5′-end with a 6-carboxyfluorescein (6FAM) reporter dye and at the 3′-end with a 6-carboxy-N,N,N′,N′-tetramethylrhodamine (TAMRA) quencher dye. When the probe was annealed to the target gene, fluorescence of 6FAM was prevented by the close proximity of TAMRA. The exonuclease activity of Taq polymerase released the dyes from the oligonucleotide probe by displacing the probe from the target sequence resulting in fluorescence excitation in direct proportion to the amount of target message present. Data analysis was performed using the Sequence Detection System software from Applied Biosystems.
All primers and probes were designed using Primer Express software supplied with the 7700 Sequence Detection System and synthesized by Applied Biosystems. Standard curves using 5-fold dilutions of total RNA (from 200 ng to 320 pg) were performed to determine the efficiency of each primer/probe set in the TaqMan reaction prior to the analysis of the experimental samples. Primer/probe sets were designed from known sequences of rat genes to be analyzed. All target gene values were normalized to a reference gene, constitutively expressed cyclophilin. Primer/probe set sequences can be found in Table 8.
RNA was extracted from frozen (−80° C.) rat heart tissue using the Totally RNA Isolation Kit (Ambion, Inc., Austin, Tex.). Tissue was crushed using a stainless steel mortar and pestle, which had been chilled to −80° C. and transferred to a dounce homogenizer (Kontes, Vineland, N.J.) containing 3-10 mL cold denaturation buffer. Tissue was homogenized and transferred to a sterile, 15 mL polypropylene centrifuge tube. An equal volume of phenol:chloroform:isoamyl alcohol (25:24:1) was added, samples were shaken vigorously for 1 min, and incubated on ice for at least 15 min. Samples were centrifuged for 30 min at 10,000 g. The aqueous phase was removed, 1/10 volume of a sodium acetate solution (3.0 M NaOAc pH 4.5) was added, samples were shaken or inverted for 10 seconds, and acid-phenol (premixed with isoamyl alcohol):chloroform (5:1, Ambion, Inc.) was added at an volume equivalent to the starting sample volume. Samples were shaken vigorously for 1 min, followed by a 15-min incubation on ice, and centrifuged for 30 min at 10,000 g. The aqueous phase removed and placed in a clean polypropylene tube. An equal volume of isopropanol (Sigma, St. Louis, Mo.) was added and the samples were mixed and incubated overnight at −20° C. The samples were centrifuged for 30 min at 10,000 g, the supernatant was removed and the RNA pellet was resuspended in DNAse/RNAse-free water. Samples were frozen at −80° C. for at least 2 hours, thawed on wet ice, and diluted for quantitation.

[1] = system: aldosterone + salt treated rats; experiment: Assay C further aldosterone infusion study: body weight, ventricle weights, tibia length (myocardial hypertrophy); format: in vivo, rat; conditions: for Ventricular weights and ventricular weight to tibia length ratios (hypertrophy): 7, 14, 30 days
Description: Assay C: Further in vivo Aldosterone Infusion Study The procedure of Assay B was expanded upon in a further study. […] Myocardial tissue from animals in each treatment group was examined after 7, 14, or 30 days of treatment. […] Lesions were preceded by the expression and progressive upregulation of proinflammatory molecules. […] Male Sprague-Dawley rats, weighing 230 to 250 g, (Harlan Sprague-Dawley Industries, Indianapolis, Ind.) were housed in a room 12-hours light/12-hours dark daily cycle at an ambient temperature of 22±1° C. (n=96). Animals were allowed one week to adjust after arrival and had free access to TEKLAD 22/5 rodent diet (Harlan TEKLAD, Madison, Wis.) and tap water until the initiation of the experiment. Prior to surgery the animals were individually weighed and placed in one of the following groups: […] Potassium chloride supplementation was added to the saline solution in order to prevent the potential hypokalemia associated with aldosterone excess. […] Louis, Mo.) was inserted subcutaneously at the nape of the neck. Aldosterone was administered at a dose of […]. […] Animals were sacrificed from each group (n=8-13) after 7, 14, or 30 days of treatment. Animals to be sacrificed after 7 or 14 days of treatment were uninephrectomized and implanted with an Alzet minipump. Animals treated for 30 days were uninephrectomized, fitted for Alzet minipumps, and implanted with radio telemetry units (model#TA11PA-C40, Data Sciences Inc., St. Paul, Minn.) according to the following procedure. […] The surgery site was clipped, scrubbed with nolvasan, and sprayed with betadine. A rostral-caudal incision was made through the skin from the base of the rib cage to the pubic region using a #11 scalpel blade. A second incision was made through the muscles of the abdominal wall to expose the peritoneal cavity. […] Organs were carefully displaced with tissue retractors in order to expose the abdominal aorta. A 1.5 cm segment just rostral to the bifurcation of the abdominal aorta into the iliac arteries was cleared of excessive connective tissue and 4-0 silk was used to make an anchor adjacent to the aorta. A microvascular clip was then placed at both ends of the cleaned region to stop excessive blood flow. Using a bent, 21 gauge needle, the abdominal aorta was penetrated. The cannula of the radio telemetry unit was inserted and stabilized in the aorta using the 4-0 silk anchor. Organs were repositioned and the telemetry unit was placed over the organs. Using a non-interrupted suture pattern with 4-0 silk, the abdominal wall was closed, and the skin was subsequently closed using a 4-0 silk in an interrupted suture pattern. […] Post-operative care included monitoring the animals on a heating pad during recovery from anesthesia until sternal recumbency was reestablished. At the cessation of each experimental time point, the animals were anesthetized with pentobarbital (65 mg/kg i.p., Sigma Chemical, St. Louis Mo.) and weighed with a Mettler PM6000 balance (Mettler-Toledo, Inc., Hightstown, N.J.). The abdominal cavity was opened to expose the abdominal aorta. A 16-gauge needle was inserted into the abdominal aorta and the animal was exsanguinated into a 12 cc syringe. The blood sample was transferred immediately into glass serum collection tubes (Terumo Medical Corp., Elkton, Md.) for drug level analysis. The samples were placed on wet ice until sample collection was complete and centrifuged for 15 min at 3000 rev/min at 4° C. Following exsanguination, hearts and kidneys were isolated, removed, rinsed in cold phosphate-buffered saline, and blotted dry.

[2] = group Mean row of Table 9.11, 7 days of treatment
[3] = individual rats, 7 days of treatment, eplerenone 100 mg/kg/day, listed as Aldosterone + salt
[4] = mean ± SEM after 30 days of treatment, eplerenone 100 mg/kg/day

Question: Which “COX-2, Mean” value (cyclooxygenase-2 (COX-2); 14 days of treatment) does the source give for `C[C@]12CCC(=O)C=C1CC[C@@H]1[C@@H]2[C@@H](O)C[C@]2(C=O)[C@@H](C(=O)CO)CC[C@@H]12` [aldosterone] here?
Answer: 4.34 AU

Question: And the “COX-2, Mean” value (cyclooxygenase-2 (COX-2); 30 days of treatment)?
Answer: 4.53 AU

Question: And the COX-2 (cyclooxygenase-2 (COX-2); 7 days of treatment, listed as Aldosterone + salt)?
Answer: 2.10 AU and 0.70 AU and 0.82 AU

Question: And the COX-2 (cyclooxygenase-2 (COX-2); 14 days of treatment, listed as Aldosterone + salt)?
Answer: 5.80 AU and 4.18 AU

Question: What about the COX-2 (cyclooxygenase-2 (COX-2); 30 days of treatment, listed as Aldosterone + salt) of the same molecule?
Answer: 3.10 AU and 8.20 AU

Question: What about the “COX-2 mRNA expression in myocardium” value (cyclooxygenase-2 (COX-2)) of the same molecule?
Answer: significantly increased

Question: And the “Ventricular weights and ventricular weight to tibia length ratios (hypertrophy)” value ([1]; eplerenone 100 mg/kg/day)?
Answer: Significant left and right ventricular hypertrophy

Question: What about the “Final Body Weight” value [1, 2] of the same molecule?
Answer: 277 g

Question: What about the “Right Ventricle Weight/Tibia Length” value [1, 2] of the same molecule?
Answer: 48 mg/cm

Question: And the “Left Ventricle Weight” value [1, 3]?
Answer: 620 mg

Question: And the “Left Ventricle Weight/Tibia Length” value [1, 3]?
Answer: 200 mg/cm

Question: And the “Right Ventricle Weight/Tibia Length” value [1, 3]?
Answer: 48 mg/cm and 49 mg/cm and 57 mg/cm and 47 mg/cm (2×) and 44 mg/cm and 41 mg/cm and 51 mg/cm and 55 mg/cm

Question: And the “Left Ventricle Weight” value [1, 4]?
Answer: 910 ± 29 mg

Question: And the “Right Ventricle Weight” value [1, 4]?
Answer: 192 ± 8 mg

Question: What about the Right Ventricle Weight/Tibia Length [1, 4] of the same molecule?
Answer: 49 ± 2 mg/cm

Question: And the “Tibia Length” value [1, 4]?
Answer: 3.9 ± 0.02 cm

Question: With `COC(=O)[C@@H]1CC2=CC(=O)CC[C@]2(C)[C@@]23O[C@@H]2C[C@@]2(C)[C@@H](CC[C@@]24CCC(=O)O4)[C@H]13` [eplerenone, Pregn-4-ene-7,21-dicarboxylic acid, 9,11-epoxy-17-hydroxy-3-oxo-, γ-lactone, methyl ester, (7α, 11α, 17β) -] as the molecule, how does the “COX-2, Mean” value (cyclooxygenase-2 (COX-2); 7 days of treatment) read?
Answer: 1.25 AU

Question: What about the “COX-2, Mean” value (cyclooxygenase-2 (COX-2); 14 days of treatment) of the same molecule?
Answer: 2.02 AU

Question: What about the “COX-2, Mean” value (cyclooxygenase-2 (COX-2); 30 days of treatment) of the same molecule?
Answer: 2.28 AU

Question: And the COX-2 (cyclooxygenase-2 (COX-2); 7 days of treatment, listed as Eplerenone + aldosterone + salt)?
Answer: 1.19 AU and 0.60 AU (2×) and 0.82 AU and 0.91 AU

Question: What about the COX-2 (cyclooxygenase-2 (COX-2); 14 days of treatment, listed as Eplerenone + aldosterone + salt) of the same molecule?
Answer: 0.70 AU and 0.99 AU and 0.86 AU

Question: And the COX-2 (cyclooxygenase-2 (COX-2); 30 days of treatment, listed as Eplerenone + aldosterone + salt)?
Answer: 0.55 AU and 1.34 AU

Question: What about the “COX-2 mRNA expression in myocardium” value (cyclooxygenase-2 (COX-2)) of the same molecule?
Answer: inhibition of early time-course expression of myocardial COX-2; also recorded: significantly reduced

Question: What about the “Ventricular weights and ventricular weight to tibia length ratios (hypertrophy)” value ([1]; eplerenone 100 mg/kg/day) of the same molecule?
Answer: did not impact absolute ventricular weights or ventricular weight to tibia length ratios

Question: What about the “Right Ventricle Weight/Tibia Length” value ([1]; Table 9.13, 30-day protocol, eplerenone 100 mg/kg/day, individual rats, listed as Eplerenone + aldosterone + salt) of the same molecule?
Answer: 50 mg/cm

Question: And the “Decrease in body weight induced by aldosterone+salt” value ([1]; day 30, eplerenone 100 mg/kg/day)?
Answer: significantly attenuated

Question: And the “Final Body Weight” value ([1]; individual rats, 7 days of treatment, eplerenone 100 mg/kg/day, listed as Eplerenone + aldosterone + salt)?
Answer: 306 g and 295 g (2×) and 277 g and 276 g

Question: What about the Left Ventricle Weight/Tibia Length [1, 4] of the same molecule?
Answer: 240 ± 9 mg/cm

Question: What about the Right Ventricle Weight/Tibia Length [1, 4] of the same molecule?
Answer: 51 ± 2 mg/cm
